Experimental data published in patent US20230159445A1, “STAT INHIBITORY COMPOUNDS AND COMPOSITIONS” (JANPIX LIMITED, priority 2020, published 2023).

What was measured:
MV4-11 cells = test: MV4-11 Cell Cytotoxicity Assay (CellTiter-Blue, 72 h); type: cell-based, human; conditions: Homo sapiens, MV4-11; MV-4-11 cells
Method in brief: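 Viability read-out: CellTiter-Blue, 1 h, fluorescence 560/590 nm. Preceded by 72 h exposure (37° C, 5% CO2) to twofold dilution series from 50 μM, triplicate, 0.5% DMSO vehicle, applied 24 h after plating.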

glutathione (GSH) = test: Reactivity Profiling with Glutathione (GSH), half-life by HPLC; conditions: 5 mM glutathione (GSH) in IMDM with 10% FBS

half-life at 25 μM (glutathione (GSH)) | SMILES | IC50 (MV4-11 cells)
4.12 to 9.23 h | CN(C)c1cc(C(=O)O)ccc1N(Cc1cc(C2CC2)cc(C(C)(C)C)c1)C(=O)CN(Cc1ccccc1F)S(=O)(=O)c1c(F)c(F)c(F)c(F)c1F [Compound 1105, 4-(N-(3-(tert-butyl)-5-cyclopropylbenzyl)-2-(N-(2-fluorobenzyl)-(2,3,4,5,6-pentafluoro-phenyl)sulfonamido)acetamido)-3-(dimethylamino)benzoic acid] | 0.01 to 316 nM
2.37 to 4.12 h | CC(C)(C)c1cc(CN(C(=O)CN(Cc2ccccc2F)S(=O)(=O)c2c(F)c(F)c(F)c(F)c2F)c2cc(C(=O)O)ccc2OC2CC2)cc(C2CC2)c1 [Compound 1110, 3-(N-(3-(tert-butyl)-5-cyclopropylbenzyl)-2-(N-(2-fluorobenzyl)-(2,3,4,5,6-pentafluoro-phenyl)sulfonamido)acetamido)-4-cyclopropoxybenzoic acid] | 316 to 1000 nM
4.12 to 9.23 h | CC(C)(C)c1cc(CN(C(=O)CN(Cc2ncccc2C(F)(F)F)S(=O)(=O)c2c(F)c(F)c(F)c(F)c2F)c2ccc(C(=O)O)cc2C2CC2)cc(C2CC2)c1 [Compound 1115, 4-(N-(3-(tert-butyl)-5-cyclopropylbenzyl)-2-(N-((3-(trifluoromethyl)pyridin-2-yl)methyl)-(2,3,4,5,6-pentafluoro-phenyl)sulfonamido)acetamido)-3-cyclopropylbenzoic acid] | 0.01 to 316 nM
2.37 to 4.12 h | COc1cc(C(=O)O)ccc1N(Cc1cc(C2CC2)cc(C(C)(C)C)c1)C(=O)CN(Cc1ccc(C(F)(F)F)cn1)S(=O)(=O)c1c(F)c(F)c(F)c(F)c1F [Compound 1117, 4-(N-(3-(tert-butyl)-5-cyclopropylbenzyl)-2-(N-((5-(trifluoromethyl)pyridin-2-yl)methyl)-(2,3,4,5,6-pentafluoro-phenyl)sulfonamido)acetamido)-3-methoxybenzoic acid] | 316 to 1000 nM
0.00167 to 2.37 h | COc1cc(C(=O)O)ccc1N(Cc1cc(C2CC2)cc(C(C)(C)C)c1)C(=O)CN(Cc1cccc(C(F)(F)F)n1)S(=O)(=O)c1c(F)c(F)c(F)c(F)c1F [Compound 1118, 4-(N-(3-(tert-butyl)-5-cyclopropylbenzyl)-2-(N-((6-(trifluoromethyl)pyridin-2-yl)methyl)-(2,3,4,5,6-pentafluoro-phenyl)sulfonamido)acetamido)-3-methoxybenzoic acid] | 316 to 1000 nM
4.12 to 9.23 h | CN(C)c1cc(C(=O)O)c(F)cc1N(Cc1cc(C2CC2)cc(C(C)(C)C)c1)C(=O)CN(Cc1c(F)cc(F)cc1F)S(=O)(=O)c1c(F)c(F)c(F)c(F)c1F [Compound 1124, 4-(N-(3-(tert-butyl)-5-cyclopropylbenzyl)-2-(N-(2,4,6-trifluorobenzyl)-(2,3,4,5,6-pentafluoro-phenyl)sulfonamido)acetamido)-5-(dimethylamino)-2-fluorobenzoic acid] | 0.01 to 316 nM
0.00167 to 2.37 h | O=C(O)c1ccc(N(Cc2ccccc2)C(=O)CN(Cc2ccccc2C(F)(F)F)S(=O)(=O)c2c(F)c(F)c(F)c(F)c2F)c(OC2CC2)c1 [Compound 1126, 4-(N-benzyl-2-(N-(2-(trifluoromethyl)benzyl)-(2,3,4,5,6-pentafluoro-phenyl)sulfonamido)acetamido)-3-cyclopropoxybenzoic acid] | 1000 to 3160 nM
0.00167 to 2.37 h | O=C(O)c1ccc(N(Cc2ncccn2)C(=O)CN(Cc2ccccc2C(F)(F)F)S(=O)(=O)c2c(F)c(F)c(F)c(F)c2F)c(OC2CC2)c1 [Compound 1128, 3-cyclopropoxy-4-(2-(N-(2-(trifluoromethyl)benzyl)-(2,3,4,5,6-pentafluoro-phenyl)sulfonamido)-N-(pyrimidin-2-ylmethyl)acetamido) benzoic acid] | 1000 to 3160 nM
2.37 to 4.12 h | O=C(O)c1ccc(N(C(=O)CN(Cc2ccccc2C(F)(F)F)S(=O)(=O)c2c(F)c(F)c(F)c(F)c2F)C2CCC2)c(OC2CC2)c1 [Compound 1129, 4-(N-cyclobutyl-2-(N-(2-(trifluoromethyl)benzyl)-(2,3,4,5,6-pentafluoro-phenyl)sulfonamido)acetamido)-3-cyclopropoxybenzoic acid] | 3160 to 100000 nM
2.37 to 4.12 h | COc1cc(C(=O)O)ccc1N(Cc1cc(C2CC2)cc(C(C)(C)C)c1)C(=O)CN(Cc1ccncc1C(F)(F)F)S(=O)(=O)c1c(F)c(F)c(F)c(F)c1F [Compound 1130, 4-(N-(3-(tert-butyl)-5-cyclopropylbenzyl)-2-(N-((3-(trifluoromethyl)pyridin-4-yl)methyl)-(2,3,4,5,6-pentafluoro-phenyl)sulfonamido)acetamido)-3-methoxybenzoic acid] | 316 to 1000 nM
2.37 to 4.12 h | COc1cc(C(=O)O)ccc1N(Cc1cc(C2CC2)cc(C(C)(C)C)c1)C(=O)CN(Cc1ccc(C(F)(F)F)nc1)S(=O)(=O)c1c(F)c(F)c(F)c(F)c1F [Compound 1132, 4-(N-(3-(tert-butyl)-5-cyclopropylbenzyl)-2-(N-((6-(trifluoromethyl)pyridin-3-yl)methyl)-(2,3,4,5,6-pentafluoro-phenyl)sulfonamido)acetamido)-3-methoxybenzoic acid] | 316 to 1000 nM
0.00167 to 2.37 h | COc1cc(C(=O)O)ccc1N(Cc1cc(C2CC2)cc(C(C)(C)C)c1)C(=O)CN(Cc1ccnc(C(F)(F)F)c1)S(=O)(=O)c1c(F)c(F)c(F)c(F)c1F [Compound 1133, 4-(N-(3-(tert-butyl)-5-cyclopropylbenzyl)-2-(N-((2-(trifluoromethyl)pyridin-4-yl)methyl)-(2,3,4,5,6-pentafluoro-phenyl)sulfonamido)acetamido)-3-methoxybenzoic acid] | 316 to 1000 nM
2.37 to 4.12 h | COc1cc(C(=O)O)ccc1N(Cc1cc(C2CC2)cc(C(C)(C)C)c1)C(=O)CN(Cc1cc(C(F)(F)F)ccn1)S(=O)(=O)c1c(F)c(F)c(F)c(F)c1F [Compound 1134, 4-(N-(3-(tert-butyl)-5-cyclopropylbenzyl)-2-(N-((4-(trifluoromethyl)pyridin-2-yl)methyl)-(2,3,4,5,6-pentafluoro-phenyl)sulfonamido)acetamido)-3-methoxybenzoic acid] | 1000 to 3160 nM
9.23 to 1670 h | CC(C)(C)c1cc(CN(C(=O)CN(Cc2ccc(C(F)(F)F)cc2)S(=O)(=O)c2c(F)c(F)c(F)c(F)c2F)c2ccc(C(=O)O)cc2OC2CC2)cc(C2CC2)c1 [Compound 1136, 4-(N-(3-(tert-butyl)-5-cyclopropylbenzyl)-2-(N-(4-(trifluoromethyl)benzyl)-(2,3,4,5,6-pentafluoro-phenyl)sulfonamido)acetamido)-3-cyclopropoxybenzoic acid] | 1000 to 3160 nM
0.00167 to 2.37 h | O=C(O)c1ccc(N(C(=O)CN(Cc2c(F)cc(F)cc2F)S(=O)(=O)c2c(F)c(F)c(F)c(F)c2F)C2CCC2)c(OC2CC2)c1 [Compound 1137, 4-(N-cyclobutyl-2-(N-(2,4,6-trifluorobenzyl)-(2,3,4,5,6-pentafluoro-phenyl)sulfonamido)acetamido)-3-cyclopropoxybenzoic acid] | 1000 to 3160 nM
9.23 to 1670 h | COc1cc(C(=O)N(C)S(C)(=O)=O)ccc1N(Cc1cc(C2CC2)cc(C(C)(C)C)c1)C(=O)CN(Cc1cnccc1C(F)(F)F)S(=O)(=O)c1c(F)c(F)c(F)c(F)c1F [Compound 1147, 4-(N-(3-(tert-butyl)-5-cyclopropylbenzyl)-2-(N-((4-(trifluoromethyl)pyridin-3-yl)methyl)-(2,3,4,5,6-pentafluoro-phenyl)sulfonamido)acetamido)-3-methoxy-N-methyl-N-(methylsulfonyl) benzamide] | 0.01 to 316 nM
0.00167 to 2.37 h | COc1cc(C(=O)O)ccc1N(Cc1cccc(C(C)(C)C)c1)C(=O)CN(Cc1cnccc1C(F)(F)F)S(=O)(=O)c1c(F)c(F)c(F)c(F)c1F [Compound 1149, 4-(N-(3-(tert-butyl)benzyl)-2-(N-((4-(trifluoromethyl)pyridin-3-yl)methyl)-(2,3,4,5,6-pentafluoro-phenyl)sulfonamido)acetamido)-3-methoxybenzoic acid] | 316 to 1000 nM
0.00167 to 2.37 h | COc1cc(C(=O)O)ccc1N(Cc1cccc(C(C)(C)C)c1)C(=O)CN(Cc1c(F)cc(F)cc1F)S(=O)(=O)c1c(F)c(F)c(F)c(F)c1F [Compound 1150, 4-(N-(3-(tert-butyl)benzyl)-2-(N-(2,4,6-trifluorobenzyl)-(2,3,4,5,6-pentafluoro-phenyl)sulfonamido)acetamido)-3-methoxybenzoic acid] | 0.01 to 316 nM
0.00167 to 2.37 h | COc1cc(C(=O)O)ccc1N(Cc1cc(C2CC2)cc(C(C)(C)C)c1)C(=O)CN(C12CC(C1)C2)S(=O)(=O)c1c(F)c(F)c(F)c(F)c1F [Compound 1152, 4-(2-(N-(bicyclo[1.1.1]pentan-1-yl)-(2,3,4,5,6-pentafluorophenyl)sulfon-amido)-N-(3-(tert-butyl)-5-cyclopropylbenzyl)acetamido)-3-methoxybenzoic acid] | 1000 to 3160 nM
0.00167 to 2.37 h | COc1cc(C(=O)O)ccc1N(Cc1cccc(N2CCCC2)c1)C(=O)CN(Cc1cnccc1C(F)(F)F)S(=O)(=O)c1c(F)c(F)c(F)c(F)c1F [Compound 1153, 3-methoxy-4-(2-(N-((4-(trifluoromethyl)pyridin-3-yl)methyl)-(2,3,4,5,6-pentafluoro-phenyl)sulfonamido)-N-(3-(pyrrolidin-1-yl)benzyl)acetamido) benzoic acid] | 316 to 1000 nM
0.00167 to 2.37 h | COc1cc(C(=O)O)ccc1N(Cc1ccc2ccccc2c1)C(=O)CN(Cc1cnccc1C(F)(F)F)S(=O)(=O)c1c(F)c(F)c(F)c(F)c1F [Compound 1157, 3-methoxy-4-(N-(naphthalen-2-ylmethyl)-2-(N-((4-(trifluoromethyl)pyridin-3-yl)methyl)-(2,3,4,5,6-pentafluoro-phenyl)sulfonamido)acetamido)benzoic acid] | 1000 to 3160 nM
